Source: US8088806B2 (Achillion Pharmaceuticals, Inc., priority 2005, dated 2012)

Tested on: HCV replicon
Assay: Replicon based assay of HCV replication inhibition (NPT ELISA)
Type: cell-based, Hepatitis C virus
Settings: Hepatitis C virus, Huh-7, 72 h, Table I; Huh-7 HCV replicon-containing cells, three days; read-out: Activity
In short: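 Huh-7 cells carrying a bicistronic HCV replicon (neo, EMCV-IRES-driven NS3–NS5B) treated overnight after seeding with usually 6 concentrations, 10 to 0.03 micromolar, for three days at 37° C without G418. Replication read as NPT level by captured ELISA; matched-DMSO wells and interferon alpha as controls.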

First: CCCCCOc1ccc(N(C(C)=O)c2nc(-c3ccc(F)cc3)cs2)cc1C(F)(F)F [compound 116, N-(3-(trifluoromethyl)-4-(pentyloxy)phenyl)-N-(4-(4-fluorophenyl)thiazol-2-yl)acetamide]
Second: CCCCCOc1ccc(N(C)c2nc(C(=O)O)cs2)cc1C(F)(F)F [compound 158, 2-(N-(3-(trifluoromethyl)-4-(pentyloxy)phenyl)-N-methylamino)thiazole-4-carboxylic acid]
The EC50 of the first is lower: less than 1000 nM for the first, greater than 10000 nM for the second.

`CCCCCOc1ccc(Nc2nc(C(=O)Nc3ccc(C#N)cc3)cs2)cc1C(F)(F)F` [compound 15, 2-(3-(trifluoromethyl)-4-(pentyloxy)phenylamino)-N-(4-cyanophenyl)thiazole-4-carboxamide] and `CCCCCc1ccc(Nc2nc(-c3cc(-c4ccc(Cl)c(Cl)c4)no3)cs2)cc1` [compound 184, 4-(3-(3,4-dichlorophenyl)isoxazol-5-yl)-N-(4-pentylphenyl)thiazol-2-amine] cannot be ordered by EC50: greater than 10000 nM for the first, greater than 10000 nM for the second.

Going from `c1ccc(Oc2ccc(CNc3nc(-c4cccnc4)cs3)cc2)cc1` [compound 80, N-(4-phenoxybenzyl)-4-(pyridin-3-yl)thiazol-2-amine] to `Clc1ccc(-c2csc(Nc3cccc(Oc4ccccc4)c3)n2)cc1Cl` [compound 32, 4-(3,4-dichlorophenyl)-N-(3-phenoxyphenyl)thiazol-2-amine], the EC50 falls from greater than 10000 nM to less than 1000 nM. The second is the more potent here.

Compared with `COc1ccc(Nc2nc(-c3ccccc3)c(-c3ccccc3)s2)cc1` [compound 119, N-(4-methoxyphenyl)-4,5-diphenylthiazol-2-amine], `CCN(CC)S(=O)(=O)c1ccc(-c2csc(Nc3ccc(Br)cc3)n2)cc1` [compound 120, N-(4-bromophenyl)-4-diethylaminosulfonyl-phenyl-2-amine] is higher in EC50: less than 1000 nM for the first, greater than 10000 nM for the second.

Same assay, conditions: Hepatitis C virus, Huh-7, 72 h, Table III; Huh-7 HCV replicon-containing cells, three days; read-out: Activity

`CCCCCCCCOc1ccc(Nc2nc(Cc3ccc(F)c(F)c3)cs2)cc1` [compound 608, 4-(3,4-difluorobenzyl)-N-(4-(octyloxy)phenyl)thiazol-2-amine] and `CCCCCCCCOc1ccc(Nc2nc(Cc3ccc(OC)cc3)cs2)cc1` [compound 640, 4-(4-methoxybenzyl)-N-(4-(octyloxy)phenyl)thiazol-2-amine] cannot be ordered by EC50: greater than 10000 nM for the first, greater than 10000 nM for the second.

`CNc1ccc(-c2csc(Nc3ccc(OC4CCCC4)c(C(F)(F)F)c3)n2)cn1` [compound 537, 5-(2-(4-(cyclopentyloxy)-3-(trifluoromethyl)phenylamino)thiazol-4-yl)-N-methylpyndin-2-amine] and `FC(F)(F)c1cc(Nc2nc(-c3cccnc3)cs2)ccc1OCC1CCCCC1` [compound 658, N-(4-(cyclohexylmethoxy)-3-(trifluoromethyl)phenyl)-4-(pyridin-3-yl)thiazol-2-amine] cannot be ordered by EC50: less than 1000 nM for the first, less than 1000 nM for the second.

`CCCCCCC(C)Oc1ccc(Nc2nc(-c3cccnc3)cs2)cc1C(F)(F)F` (stereo not drawn) [compound 675, N-(3-(trifluoromethyl)-4-(octan-2-yloxy)phenyl)-4-(pyridin-3-yl)thiazol-2-amine] and `CCCCCCCCOc1ccc(Nc2nc(-c3cncnc3)cs2)cc1C(F)(F)F` [compound 617, N-(3-(trifluoromethyl)-4-(octyloxy)phenyl)-4-(pyrimidin-5-yl)thiazol-2-amine] cannot be ordered by EC50: less than 1000 nM for the first, less than 1000 nM for the second.

`CCCCCCCOc1ccc(Nc2nc(-c3ccc[n+]([O-])c3)cs2)cc1` [compound 525] and `CCCCCCCCc1ccc(Nc2nc(-c3ccc(-c4ccccn4)s3)cs2)cc1` [compound 552, N-(4-octylphenyl)-4-(5-(pyridin-2-yl)thiophen-2-yl)thiazol-2-amine] cannot be ordered by EC50: less than 1000 nM for the first, less than 1000 nM for the second.

`CCCCCCCc1nc2cc(Nc3nc(-c4cccnc4)cs3)ccc2o1` [compound 716, 2-heptyl-N-(4-(pyridin-3-yl)thiazol-2-yl)benzo[d]oxazol-5-amine] and `CCCCCCCCOc1ccc(Nc2nc(-c3ccccn3)cs2)cc1C(F)(F)F` [compound 587, N-(3-(trifluoromethyl)-4-(octyloxy)phenyl)-4-(pyridin-2-yl)thiazol-2-amine] cannot be ordered by EC50: less than 1000 nM for the first, less than 1000 nM for the second.

Same assay, conditions: Hepatitis C virus, replicon based assay of HCV replication inhibition; Table II; read-out: Activity

`CCCCCOc1ccc(Nc2nc(CC)cs2)cc1F` [compound 427, 4-ethyl-N-(3-fluoro-4-(pentyloxy)phenyl)thiazol-2-amine] and `CCCCCOc1ccc(Nc2nc(CN3CCC(C)CC3)cs2)cc1F` [compound 295, N-(3-fluoro-4-(pentyloxy)pheenyl)-4-((4-methylpiperidin-1-yl)methyl)thiazol-2-amine] fall in the same range of EC50: 1000 to 10000 nM for the first, 1000 to 10000 nM for the second.

`CCCCCCCOc1ccc(Nc2nc(-c3ccc(Cl)c(Cl)c3)cs2)cc1` [compound 421, 4-(3,4-dichlorophenyl)-N-(4-(heptyloxy)phenyl)thiazol-2-amine] and `CCCCCCCOc1ccc(Nc2nc(-c3ccncc3)cs2)cc1` [compound 365, N-(4-(heptyloxy)phenyl)-4-(pyridin-4-yl)thiazol-2-amine] cannot be ordered by EC50: less than 1000 nM for the first, less than 1000 nM for the second.

First: CCCCCCCCOc1ccc(Nc2nc(-c3ccc(C#N)nc3)cs2)cc1 [compound 512, 5-(2-(4-(octyloxy)phenylamino)thia-zol-4-yl)pyridine-2-carbonitrile]
Second: CCCCCCCCOc1ccc(Nc2nc(-c3ccc(C(=O)N(C)C)nc3)cs2)cc1 [compound 456, 5-(2-(4-(octyloxy)phenylamino)thia-zol-4-yl)-N,N-dimethylpyridine-2-carboxamide]
The EC50 of the first is lower: less than 1000 nM for the first, 1000 to 10000 nM for the second. The first is the more potent here.

Compared with `CCCCCCCCOc1ccc(Nc2nc(-c3ccc(OCC(=O)O)cc3)cs2)cc1` [compound 462, 2-(4-(2-(4-(octyloxy)phenylamino)thia-zol-4-yl)phenoxy)acetic acid], `CCCCCCCCOc1ccc(Nc2nc(-c3ccc(C(=O)O)cc3)cs2)cc1` [compound 303, 4-(2-(4-(octyloxy)phenylamino)thia-zol-4-yl)benzoic acid] is higher in EC50: less than 1000 nM for the first, 1000 to 10000 nM for the second. The first is the more potent here.

Compared with `CCCCCOc1ccc(Nc2nc(CN3CCC[C@@H]3C(=O)O)cs2)cc1C(F)(F)F` [compound 278, (R)-1-((2-(4-(pentyloxy)-3-(trifluoromethyl)phenyl-amino)thiazol-4-yl)methyl)pyrrolidine-2-carboxylic acid], `CCCCCOc1ccc(Nc2nc(-c3ccc(NC(C)=O)cc3)cs2)cc1C(F)(F)F` [compound 437, N-(4-(2-(3-(trifluoromethyl)-4-(pentyloxy)phenylamino)thia-zol-4-yl)phenyl)acetamide] is higher in EC50: less than 1000 nM for the first, 1000 to 10000 nM for the second. The first is the more potent here.

First: CCOC(=O)c1ccc(Nc2nc(-c3ccc(OC)cc3)c(-c3ccc(OC)cc3)s2)cc1 [compound 334, ethyl 4-(4,5-bis(4-methoxyphenyl)thiazol-2-ylamino)benzoate]
Second: CCOC(=O)c1ccc(Nc2nc(-c3ccc(F)cc3)c(C)s2)cc1 [compound 347, ethyl 4-(4-(4-fluorophenyl)-5-mthylthiazol-2-ylamino)benzoate]
The EC50 of the first is lower: 1000 to 10000 nM for the first, greater than 10000 nM for the second. The first is the more potent here.

First: CCCCCCCCOc1ccc(Nc2nc(Cc3cccnc3)cs2)cc1 [compound 501, N-(4-(octyloxy)phenyl)-4-((pyridin-3-yl)methyl)thiazol-2-amine]
Second: CCCCCCCCOc1ccc(Nc2nc(-c3ccccn3)cs2)cc1 [compound 385, N-(4-(octyloxy)phenyl)-4-(pyridin-2-yl)thiazol-2-amine]
The EC50 of the first is higher: 1000 to 10000 nM for the first, less than 1000 nM for the second.

Compared with `CCCCCOc1ccc(Nc2nc(-c3ccccc3OC)cs2)cc1C(F)(F)F` [compound 374, 4-(2-methoxyphenyl)-N-(4-(pentyloxy)-3-(trifluoromethyl)phenyl)thia-zol-2-amine], `CCCCCCCCOc1ccc(Nc2nc(-c3cccnc3)cs2)cc1C(F)(F)F` [compound 476, N-(3-(trifluoromeethyl)-4-(octyloxy)phenyl)-4-(pyridin-3-yl)thiazol-2-amine] is lower in EC50: 1000 to 10000 nM for the first, less than 1000 nM for the second. The second is the more potent here.

`CC(C)COc1ccc(Nc2nc(-c3ccc(O)c(C(N)=O)c3)cs2)cc1C(F)(F)F` [compound 255, 2-hydroxy-5-(2-(4-isobutoxy-3-(trifluoromethyl)phenyl-amino)thiazol-4-yl)benzamide] and `CCCCCCCCOc1ccc(Nc2nc(-c3cn4cccnc4n3)cs2)cc1` [compound 307, 4-(imidazo[1,2-a]pyrimidin-2-yl)-N-(4-(octyloxy)phenyl)thiazol-2-amine] cannot be ordered by EC50: less than 1000 nM for the first, less than 1000 nM for the second.

Same assay, conditions: Hepatitis C virus, replicon based assay of HCV replication inhibition; Table IV; read-out: Activity

First: COc1ncc(-c2csc(Nc3ccc4c(ccn4Cc4ccc(F)cc4)c3)n2)cn1 [compound 919, 1-(4-fluorobenzyl)-N-(4-(2-methoxypyrimidin-5-yl)thiazol-2-yl)-1H-indol-5-amine]
Second: COc1ncc(-c2csc(Nc3ccc(OCCCc4ccccc4)c(C(F)(F)F)c3)n2)cn1 [compound 831, N-(4-(3-phenylpropoxy)-3-(trifluoromethyl)phenyl)-4-(2-methoxypyrimidin-5-yl)thiazol-2-amine]
The EC50 of the first is higher: 1000 to 10000 nM for the first, less than 1000 nM for the second.

`CCN(CCOc1ccc(Nc2nc(-c3cccnc3)cs2)cc1C(F)(F)F)c1ccccc1` [compound 847] and `CN(CCOc1ccc(Nc2nc(-c3cccnc3)cs2)cc1C(F)(F)F)c1ccccc1` [compound 802] cannot be ordered by EC50: less than 1000 nM for the first, less than 1000 nM for the second.

Going from `c1cncc(-c2csc(Nc3ccc4c(c3)OCO4)n2)c1` [compound 740, N-(benzo[d][1,3]dioxol-6-yl)-4-(pyridin-3-yl)thiazol-2-amine] to `CC(C)(C)c1cc(Nc2nc(-c3cccnc3)cs2)cc(C(C)(C)C)c1` [compound 894, N-(3,5-di-tert-butylphenyl)-4-(pyridin-3-yl)thiazol-2-amine], the EC50 falls from greater than 10000 nM to less than 1000 nM. The second is the more potent here.

In the case of `Fc1cc(Nc2nc(-c3cccnc3)cs2)ccc1OCCCCc1ccccc1` [compound 912, N-(4-(4-phenylbutoxy)-3-fluorophenyl)-4-(pyridin-3-yl)thiazol-2-amine], the EC50 is reported as less than 1000 nM.

Same assay, conditions: Table I; Huh-7 HCV replicon-containing cells, three days; read-out: Activity

`CCCCCOc1ccc(Nc2nc(-c3ccc(Cl)cc3)cs2)cc1C(F)(F)F` [compound 3] gave an EC50 of less than 1000 nM.

Same assay, conditions: replicon based assay of HCV replication inhibition; Table II; read-out: Activity

Work on `CCCCCCCCOc1ccc(Nc2nc(-c3cccnc3)cs2)cn1` [compound 472, 6-(octyloxy)-N-(4-(pyridin-3-yl)thiazol-2-yl)pyridin-3-amine] yielded an EC50 of less than 1000 nM.
